Assay results as given in ChEMBL document CHEMBL1201862, “PubChem BioAssay data set” (2004).
The source made the active and inactive calls.

Experiments:
[1] = Luminescence Cell-Based Dose Response to Identify Activators of 5'UTR Stem-Loop Driven Prion Protein mRNA Translation in H4-C Neuroglioblastoma Cells. [Related pubchem assays: 1829 (Project Summary), 1814 (Primary HTS)]; format: functional
[2] = Luminescence Cell-Based Dose Response HTS to Identify Activators of Luciferase Translation or Activity in H4 […] Cells. [Related pubchem assays: 1829 (Project Summary), 1814 (Primary HTS)]; format: functional
H4 = assay: Luminescence Cell-Based Dose Response HTS to Identify Activators of 5'UTR Stem-Loop Driven Prion Protein mRNA Translation in H4 Neuroglioblastoma Cells. [Related pubchem assays: 1829 (Project Summary), 1814 (Primary HTS)]; format: functional; details: Homo sapiens
[3] = Luminescence Cell-Based Dose Response to Identify Activators of Luciferase Translation or Activity in H4-C Neuroglioblastoma Cells. [Related pubchem assays: 1829 (Project Summary), 1814 (Primary HTS)]; format: functional
[4] = Luminescence Cell-Based Dose Confirmation to Identify Activators of 5'UTR Stem-Loop Driven Alpha-Synuclein mRNA Translation in H4 Neuroglioblastoma Cells. [Related pubchem assays: 1829 (Project Summary), 1814 (Primary HTS)]; format: functional
[5] = biological target: T1, Rac GTPase-activating protein 1 (Homo sapiens, UniProt Q9H0H5); assay: MgcRacGAP GTPase-activating activity inhibitors, confirmation, biochemical, ADP Hunter fluorescence, primary and confirmatory (AID 624330); format: functional
T1 sequence (Q9H0H5 whole entry): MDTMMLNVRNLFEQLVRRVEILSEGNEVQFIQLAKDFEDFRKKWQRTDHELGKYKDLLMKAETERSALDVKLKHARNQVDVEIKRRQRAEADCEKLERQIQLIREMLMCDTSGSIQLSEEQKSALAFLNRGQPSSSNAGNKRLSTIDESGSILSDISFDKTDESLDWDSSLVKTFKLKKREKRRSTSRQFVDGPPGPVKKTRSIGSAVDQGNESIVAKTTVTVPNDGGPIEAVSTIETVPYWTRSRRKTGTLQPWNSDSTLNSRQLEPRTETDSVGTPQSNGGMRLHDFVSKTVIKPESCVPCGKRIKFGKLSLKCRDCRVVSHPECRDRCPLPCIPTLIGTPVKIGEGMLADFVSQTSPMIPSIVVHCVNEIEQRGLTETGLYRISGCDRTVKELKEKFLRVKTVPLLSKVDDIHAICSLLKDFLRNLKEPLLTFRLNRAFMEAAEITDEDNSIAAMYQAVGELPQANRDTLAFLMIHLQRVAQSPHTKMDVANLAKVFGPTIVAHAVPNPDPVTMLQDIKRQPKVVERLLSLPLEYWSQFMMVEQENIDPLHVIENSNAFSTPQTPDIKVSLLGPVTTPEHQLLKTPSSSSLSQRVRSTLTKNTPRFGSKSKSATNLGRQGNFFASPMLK

[6] = biological target: T2, Oxysterols receptor LXR-beta (Homo sapiens, UniProt P55055); format: functional, cell-based;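 further: agonist activity at LXR measured by a cell-based luminescence readout across a dose range, run as a counterscreen for daf-12 agonists; HEK293 cells with Gal4-LXR fusion and GAL4-driven luciferase reporter; potency for activation of Gal4-LXR reporter so compounds are agonists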
T2 sequence (P55055 whole entry): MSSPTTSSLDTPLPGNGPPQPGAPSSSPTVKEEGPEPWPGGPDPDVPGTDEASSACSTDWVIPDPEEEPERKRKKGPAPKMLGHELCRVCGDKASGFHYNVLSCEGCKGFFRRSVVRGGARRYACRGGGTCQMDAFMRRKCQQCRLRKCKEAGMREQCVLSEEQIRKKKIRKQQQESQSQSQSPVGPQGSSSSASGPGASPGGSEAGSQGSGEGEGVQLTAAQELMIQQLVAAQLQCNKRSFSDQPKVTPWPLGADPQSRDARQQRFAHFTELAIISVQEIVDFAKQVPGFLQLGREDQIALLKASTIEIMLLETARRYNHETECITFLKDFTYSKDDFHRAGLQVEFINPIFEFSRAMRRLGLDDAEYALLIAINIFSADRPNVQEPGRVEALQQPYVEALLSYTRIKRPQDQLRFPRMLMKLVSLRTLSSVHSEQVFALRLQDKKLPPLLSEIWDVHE

[7] = ADAM10 inhibitors, peptide cleavage, dose response, biochemical, QFRET (AID 743254);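 further: ADAM10 enzyme with the DM2 quenched FRET peptide as substrate; EDANS fluorescence gain as the protease cuts the substrate; inhibitor potency against ADAM10 proteolytic activity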
[8] = biological target: Disintegrin and metalloproteinase domain-containing protein 17 (Homo sapiens, UniProt P78536); assay: ADAM17 protease inhibitors, dose response, counter-screen for ADAM10 exosite inhibitor project, biochemical, quenched FRET substrate (AID 743253)
[9] = A cytotoxicity screen of small molecule inhibitors of the PhoP region in Salmonella typhi identified in the primary screen. [Related pubchem assays: 1850, 1864, 1985 ]; format: functional
INS1 = assay: beta cell apoptosis inhibitors, cytokine rescue, dose response, luminescence, retest (AID 449756); format: functional, cell-based; details: Rattus norvegicus;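 further: cell death triggered by IL-1 beta plus TNF-alpha plus IFN-gamma mixture; protective hits raise ATP signal compared with cytokine alone wells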
[10] = Shn3 3'UTR reporter inhibitors, dose response, cell-based, Clone20 osteoblasts, firefly luciferase, cherry-picked (AID 624132); format: functional;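 further: firefly luciferase luminescence from reporter carrying the Shn3 3'UTR in osteoblasts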
[11] = HepG2 cell cytotoxicity, dose response, cytotoxicity control for Shn3 inhibitor project, CellTiter-Glo, cherry-picked (AID 624134); format: functional, cell-based
[12] = control 3'UTR Renilla luciferase suppression, dose response, counter-screen for Shn3 inhibitor project, cell-based, Clone20-Shn3RL, cherry-picked (AID 624133); format: functional
Protein Wnt-3a = Protein Wnt-3a (Mus musculus, UniProt P27467); assay: Wnt3a-driven reporter signaling inhibition, dose response, selectivity assay for Gli-SUFU antagonist project, Wnt-LIGHT cells, luminescence (AID 651570); format: functional; details: read-out: IC50_Mean;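 further: Wnt-LIGHT reporter cells stimulated with conditioned medium from Wnt3a-producing cells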
[13] = inhibitors of HIV Env-driven cell fusion, dose response, cherry-pick (AID 652057); format: functional, cell-based
[14] = CEM21 lymphoblast cell cytotoxicity, dose response, cytotoxicity control for viral fusion inhibitor project, CellTiter-Glo luminescence, cherry-picked (AID 652042); format: functional, cell-based;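 further: potency for signal decrease meaning cytotoxicity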
[15] = ZM109 Env clade C HIV-1 fusion inhibitors, dose response, HeLa effector, CEM target cells, luciferase, cherry-pick (AID 652058); format: functional, cell-based
[16] = inhibitors of clade B AD8 Env fusion, dose response, cell-based, cherry-pick (AID 652062); format: functional;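 further: luciferase signal from cell-cell fusion driven by HIV-1 clade B AD8 Env; potency is for inhibitors of fusion seen as a drop in luminescence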
[17] = reduction of Shn3 3'UTR firefly luciferase signal, dose response, Schnurri-3 inhibitor project, cell-based, Clone20 osteoblasts, cherry-pick, set 2 (AID 720490); format: functional;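 further: actives lower the luminescence signal as inhibitors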
[18] = Late stage counterscreen for inhibitors of Trypanosoma brucei methionyl tRNA synthetase (MetRS): Luminescence-based cell-based high throughput dose response assay to identify compounds that are cytotoxic to Jurkat human T lymphocyte cells.; format: functional

Sequence of Disintegrin and metalloproteinase domain-containing protein 17 (P78536 whole entry, the tested form may be a part): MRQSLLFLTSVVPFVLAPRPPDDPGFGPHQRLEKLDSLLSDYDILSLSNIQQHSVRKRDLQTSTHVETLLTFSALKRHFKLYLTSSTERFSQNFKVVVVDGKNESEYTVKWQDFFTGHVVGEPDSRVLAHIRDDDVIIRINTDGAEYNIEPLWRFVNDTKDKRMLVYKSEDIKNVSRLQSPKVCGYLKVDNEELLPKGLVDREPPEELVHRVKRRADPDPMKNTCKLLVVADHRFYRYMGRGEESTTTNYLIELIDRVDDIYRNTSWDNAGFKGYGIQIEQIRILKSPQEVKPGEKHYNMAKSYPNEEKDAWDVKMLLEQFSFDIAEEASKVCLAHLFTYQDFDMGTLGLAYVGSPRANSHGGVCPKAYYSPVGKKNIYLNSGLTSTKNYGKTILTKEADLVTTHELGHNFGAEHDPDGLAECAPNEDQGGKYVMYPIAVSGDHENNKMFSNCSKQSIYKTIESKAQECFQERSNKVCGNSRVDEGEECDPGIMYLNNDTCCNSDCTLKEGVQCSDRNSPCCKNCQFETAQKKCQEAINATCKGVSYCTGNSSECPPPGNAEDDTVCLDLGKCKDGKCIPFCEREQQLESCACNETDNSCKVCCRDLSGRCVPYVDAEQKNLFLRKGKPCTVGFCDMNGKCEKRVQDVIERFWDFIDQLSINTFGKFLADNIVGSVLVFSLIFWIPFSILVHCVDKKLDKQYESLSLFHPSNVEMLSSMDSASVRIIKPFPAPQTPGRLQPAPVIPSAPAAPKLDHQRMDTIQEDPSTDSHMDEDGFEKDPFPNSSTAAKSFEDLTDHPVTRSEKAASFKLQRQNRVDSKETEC
Sequence of Protein Wnt-3a (P27467 whole entry, the tested form may be a part): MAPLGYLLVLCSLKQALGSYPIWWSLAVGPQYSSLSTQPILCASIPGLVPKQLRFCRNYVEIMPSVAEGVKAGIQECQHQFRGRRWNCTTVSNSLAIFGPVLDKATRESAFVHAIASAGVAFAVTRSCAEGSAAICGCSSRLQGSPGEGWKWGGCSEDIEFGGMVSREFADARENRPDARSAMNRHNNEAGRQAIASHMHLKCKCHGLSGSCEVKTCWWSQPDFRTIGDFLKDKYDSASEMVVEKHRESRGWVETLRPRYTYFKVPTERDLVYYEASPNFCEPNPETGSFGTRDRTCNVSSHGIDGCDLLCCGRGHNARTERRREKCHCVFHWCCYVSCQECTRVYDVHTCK

In the case of `CN1C(=O)/C(=C/C=C2\SCCN2C)N(C)C1=S`, the EC50 [1] is reported as 0.383 µM (active), the EC50 [2] is reported as < 0.1 µM (active) and the EC50 (H4) is reported as > 120 µM (inconclusive). For the same molecule, the EC50 [3] was 0.41 µM (active), the EC50 [4] was 0.766 µM (active) and the IC50 [5] was 20 µM (active). For the same molecule, the EC50 [6] was > 67.6 µM (inactive).

In the case of `C=CCN(c1ccccc1OC)S(=O)(=O)c1cccc(C(=O)OCC(=O)c2c[nH]c3ccccc23)c1`, the IC50 [7] is reported as > 69.5 µM (inactive) and the IC50 [8] is reported as > 69.5 µM (inactive).

For `CCN(CC)c1ccc(NC(=O)COC(=O)CSc2ccc(Br)cc2C)cc1`, the IC50 [7] was > 7.72 µM (active) and the IC50 [8] was > 69.5 µM (inactive).

With `CCCCOCCCNc1[nH]cnc2c3ccccc3nc1-2` the EC50 [9] was > 50 µM (active), the AC50 (INS1) was 1.78 µM (active) and the AC50 [10] was 1.05 µM (active). The AC50 [11] was 22.9 µM (active), the AC50 [12] was 10.9 µM (active) and the IC50 (Protein Wnt-3a) was 0.843 µM (active). The AC50 [13] was 33.8 µM (active), the AC50 [14] was 46.3 µM (active) and the AC50 [15] was 14.8 µM (active). The AC50 [16] was 5.02 µM (active) and the AC50 [17] was 1.48 µM (active).

In the case of `O=C(NCc1nc2ccccc2[nH]1)C1=C[C@H](c2ccc(Br)cc2)C[C@H](OCc2ccc(CO)cc2)O1`, the IC50 [18] is reported as 81.3 µM (inactive).
